Assay results from patent publication US11230530B2, “Human plasma kallikrein inhibitors” (BioCryst Pharmaceuticals, Inc., priority 2014, dated 2022).

Tests used:
human plasma kallikrein = human plasma kallikrein (Homo sapiens (Human), UniProt P03952); experiment: Plasma kallikrein activity assay (chromogenic substrate S2302); type: biochemical; conditions: 2 nM kallikrein, 80 μM S2302, 30° C., pH 7.8; Cheng-Prusoff; reported as ranges
Experimental: Plasma kallikrein activity assay. The effect of compounds of the invention on human plasma kallikrein activity was determined using the chromogenic substrates (DiaPharma Group, Inc., West Chester, Ohio, USA). In these experiments, 2 nM kallikrein (Enzyme Research Laboratories, South Bend, Ind., USA) was incubated with 80 μM S2302 (H-D-Pro-Phe-Arg-p-nitroaniline) in the absence or presence of increasing concentrations of compounds of the invention in a final volume of 200 μL Tris-HCl buffer (200 mM NaCl; 2.5 mM CaCl2; 50 mM Tris-HCl, pH 7.8).
Data were analyzed using SigmaPlot software (Systat Software, Inc., San Jose, Calif., USA) (Four Parameter Logistic Curve).

[1] = system: patients with hereditary angioedema (HAE); conditions: in vivo; cited from earlier work

Sequence of human plasma kallikrein (P03952 whole entry, looked up): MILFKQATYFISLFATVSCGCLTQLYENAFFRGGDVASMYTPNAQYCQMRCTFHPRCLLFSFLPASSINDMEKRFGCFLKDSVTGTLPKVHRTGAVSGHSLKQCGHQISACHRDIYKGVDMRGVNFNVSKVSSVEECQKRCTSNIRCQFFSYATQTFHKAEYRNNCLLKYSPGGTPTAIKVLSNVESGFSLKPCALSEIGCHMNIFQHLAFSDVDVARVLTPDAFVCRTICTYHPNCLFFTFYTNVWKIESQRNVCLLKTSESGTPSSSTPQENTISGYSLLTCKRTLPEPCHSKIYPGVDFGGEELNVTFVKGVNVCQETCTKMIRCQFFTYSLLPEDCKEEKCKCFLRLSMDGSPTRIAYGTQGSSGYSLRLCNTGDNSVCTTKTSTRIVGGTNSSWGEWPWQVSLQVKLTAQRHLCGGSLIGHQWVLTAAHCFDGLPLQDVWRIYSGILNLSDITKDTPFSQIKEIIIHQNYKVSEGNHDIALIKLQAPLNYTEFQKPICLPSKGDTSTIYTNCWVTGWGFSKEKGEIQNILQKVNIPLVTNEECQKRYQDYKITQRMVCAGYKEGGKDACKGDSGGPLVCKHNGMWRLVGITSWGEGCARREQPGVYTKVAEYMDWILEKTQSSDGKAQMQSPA
Sequence of human plasma kallikrein (P03952 whole entry partner, looked up): as the sequence (P03952 whole entry, looked up) above

Compound	Ki (human plasma kallikrein) [nM]	treating HAE [1]
Cc1cc(C(=O)Nc2cccc(C(NCC3CC3)c3cc(O)ccc3O)c2)n(-c2cccc(CN)c2)n1 (centres unmarked) [Compound 146g, 1-(3-(Aminomethyl)phenyl)-N-(3-((cyclopropylmethylamino)(2,5-dihydroxyphenyl)methyl)phenyl)-3-methyl-1H-pyrazole-5-carboxamide]	0.1 to 50	–
NC(N)=NCCC[C@@H](N)C(=O)N[C@@H](CCCN=C(N)N)C(=O)N1CCC[C@H]1C(=O)N1C[C@H](O)C[C@H]1C(=O)NCC(=O)N[C@@H](Cc1cccs1)C(=O)N[C@@H](CO)C(=O)N1Cc2ccccc2C[C@@H]1C(=O)N1[C@H](C(=O)N[C@@H](CCCN=C(N)N)C(=O)O)C[C@@H]2CCCC[C@@H]21 [Icatibant]	–	effective
